Reference: patent US20070281991A1, “Preparation Of Phenol-Amide Compounds With Anti-Oxidizing Properties” (priority 2004, published 2007)

Assay: Inhibitory effect on free radical diphenylpicrylhydrazide, UV spectrophotometry at 517 nm
Conditions: for Inhibition % / Absorbance at 517 nm: ethanolic solution, 20 micromoles by liter of compound, 100 micromeres by liter of radical (VIII), 30 minutes at 20° C.; for Absorbance at 517 nm: vat 1 cm, control only 1.15
Procedure: The anti-oxidizing potential in solution of the amide-phenol compounds (I) and (II) was evaluated by the degree of their reaction with radical free diphenyl-picrylhydrazide (VIII) following C. T. Ho, Journal of Agricultural and Food Chemistry, 1999, p.
The inhibitory effect of the free radicals claimed for the compounds (Ia) and (IIa) has been evaluated by the measure of their absorbencies in UV spectrophotometry at 517 nanometers in the presence of an excess of radical diphenylpicrylhydrazide (VIII).
Ethanolic solutions containing 20 micromoles by liter of compound to test and 100 micromeres by liter of radical (VIII) agitated for 30 minutes at 20° C. and placed in a vat 1 cm of length.

SMILES	Inhibition %	Absorbance at 517 nm	inhibitory activity compared with TROLOX and methyl gallate (in words) (diphenylpicrylhydrazide radical test)
COC(=O)c1cc(O)c(O)c(O)c1 [Gallate of methyl (IIIa), methyl gallate]	71%	0.33	
CCCCCCCCCCC(CO)NC(=O)c1cc(O)c(O)c(O)c1 (stereo not shown) [Gallic amide (Ia)]	70%	0.35	lower than TROLOX but comparable to that of methyl gallate
Cc1c(C)c2c(c(C)c1O)CCC(C)(C(=O)O)O2 (stereo not shown) [TROLOX (IVa), 6-hydroxy-2,5,7,8-tetramethyl chroman-2-carboxylic acid]	91%	0.10	
